Binding and Kd data for ten compounds are collected here from paper PMC8953565 (2022).

The structures appear in SMILES notation.

The subject of assay [1] is FAM-MG-36-17 (DNA, aptamer) CGCAGCGCGGCAGACAGTCAGGCTCAGCACGTGGCA
The assay is described as follows: graphene oxide FRET fluorescence recovery. The conditions noted are these: 137 mM NaCl, 2.7 mM KCl, 1 mM CaCl2, 0.5 mM MgCl2; DPBS pH 7.4, room temperature; 10 nM aptamer on GO; compound at twice the MG concentration.

Assay [2] concerns FAM-MG-36-12 (DNA, aptamer) CCATGCGACGGACAGCACGTGTCACCGCGATCAGCC
The assay is described as follows: graphene oxide FRET fluorescence recovery. To be noted: 137 mM NaCl, 2.7 mM KCl, 1 mM CaCl2, 0.5 mM MgCl2; DPBS pH 7.4, room temperature; 10 nM aptamer on GO; compound at twice the MG concentration.

Assay [3] deals with FAM-MG-76-16-6A (DNA, aptamer) AAAAAAGTTCGTGGTGTGCTGGATGTCCACCCGACAGCCAGTCACGCGCATCGTACAGACCGTGACACATCCAGCAGCACGA
The assay is described as follows: graphene oxide FRET fluorescence recovery. The conditions noted are these: 137 mM NaCl, 2.7 mM KCl, 1 mM CaCl2, 0.5 mM MgCl2; DPBS pH 7.4, room temperature; 10 nM aptamer on GO; compound at twice the MG concentration.

The subject of assay [4] is MG-15 (DNA, aptamer) CGGCCAGACGACAGCCAGTCACCGGACACGATCAGG
Kind of assay: ITC. The conditions noted are these: 137 mM NaCl, 2.7 mM KCl, 1 mM CaCl2, 0.5 mM MgCl2; DPBS pH 7.4, 25 °C; screen with 100 μM candidate and 10 mM MG; weak thermal variation.

Assay [5] deals with MG-36-12 (DNA, aptamer) CCATGCGACGGACAGCACGTGTCACCGCGATCAGCC
The assay is described as follows: ITC. To be noted: 137 mM NaCl, 2.7 mM KCl, 1 mM CaCl2, 0.5 mM MgCl2; DPBS pH 7.4, 25 °C; 2 mM MG into 5 μM aptamer; one-site model.

Assay [6] relates to MG-21 (DNA, aptamer) CCATGCAGCCAGCGTCCACCGTCCGTACAGTACGTG
Kind of assay: ITC. The conditions noted are these: 137 mM NaCl, 2.7 mM KCl, 1 mM CaCl2, 0.5 mM MgCl2; DPBS pH 7.4, 25 °C; screen with 100 μM candidate and 10 mM MG; weak thermal variation.

Assay [7] relates to MG-3 (DNA, aptamer) CGAGACACAGTCACGTGCATCCAGTCAGCATGCGTC
The assay is described as follows: ITC. The conditions noted are these: 137 mM NaCl, 2.7 mM KCl, 1 mM CaCl2, 0.5 mM MgCl2; DPBS pH 7.4, 25 °C; screen with 100 μM candidate and 10 mM MG; weak thermal variation.

In assay [8] the test system is MG-2 (DNA, aptamer) AGCCCGAGCTGCAGCCAGAATGTGCCACGTGTACGT
Kind of assay: ITC. To be noted: 137 mM NaCl, 2.7 mM KCl, 1 mM CaCl2, 0.5 mM MgCl2; DPBS pH 7.4, 25 °C; screen with 100 μM candidate and 10 mM MG; weak thermal variation.

For assay [9], the system named is MG-8 (DNA, aptamer) TGTGCCCACAACTCCAGTCACGTTCGTCCAGCTCAG
The assay is described as follows: ITC. To be noted: 137 mM NaCl, 2.7 mM KCl, 1 mM CaCl2, 0.5 mM MgCl2; DPBS pH 7.4, 25 °C; screen with 100 μM candidate and 10 mM MG; weak thermal variation.

In assay [10] the test system is MG-18 (DNA, aptamer) CCGCAGCACGGTCGTACAGCAGCTGCCACGGCATCC
Kind of assay: ITC. To be noted: 137 mM NaCl, 2.7 mM KCl, 1 mM CaCl2, 0.5 mM MgCl2; DPBS pH 7.4, 25 °C; screen with 100 μM candidate and 10 mM MG; weak thermal variation.

Assay [11] concerns MG-5 (DNA, aptamer) CCCCGACAGCCGGCACAATGTGTCTGCCACGGACGT
The assay is described as follows: ITC. To be noted: 137 mM NaCl, 2.7 mM KCl, 1 mM CaCl2, 0.5 mM MgCl2; DPBS pH 7.4, 25 °C; screen with 100 μM candidate and 10 mM MG; weak thermal variation.

Assay [12] has as its system MG-1 (DNA, aptamer) CCGCCACAGGACAGCCAGTCTGATCGCCATGACGAC
The assay is described as follows: ITC. The conditions noted are these: 137 mM NaCl, 2.7 mM KCl, 1 mM CaCl2, 0.5 mM MgCl2; DPBS pH 7.4, 25 °C; screen with 100 μM candidate and 10 mM MG; weak thermal variation.

For assay [13], the system named is MG-6 (DNA, aptamer) CGCAACGCGGCAACAGAGCACAGATCGCACAGACTG
The assay is described as follows: ITC. To be noted: 137 mM NaCl, 2.7 mM KCl, 1 mM CaCl2, 0.5 mM MgCl2; DPBS pH 7.4, 25 °C; screen with 100 μM candidate and 10 mM MG; weak thermal variation.

Assay [14] concerns MG-36-16 (DNA, aptamer) CCACCCGACAGCCAGTCACGCGCATCGTACAGACCG
The assay is described as follows: ITC. The conditions noted are these: 137 mM NaCl, 2.7 mM KCl, 1 mM CaCl2, 0.5 mM MgCl2; DPBS pH 7.4, 25 °C; 2 mM MG into 5 μM aptamer; one-site model.

The subject of assay [15] is MG-23 (DNA, aptamer) CGCTACGACAGACAGCGTCGAGCACACAACGTTGCG
Kind of assay: ITC. To be noted: 137 mM NaCl, 2.7 mM KCl, 1 mM CaCl2, 0.5 mM MgCl2; DPBS pH 7.4, 25 °C; screen with 100 μM candidate and 10 mM MG; weak thermal variation.

In assay [16] the test system is MG-22 (DNA, aptamer) CGCGCACAGACAGCGTCATGGCCACGTACAGTTCCT
The assay is described as follows: ITC. The conditions noted are these: 137 mM NaCl, 2.7 mM KCl, 1 mM CaCl2, 0.5 mM MgCl2; DPBS pH 7.4, 25 °C; screen with 100 μM candidate and 10 mM MG; weak thermal variation.

The subject of assay [17] is MG-20 (DNA, aptamer) CGCACAGCAAGACAGCCAGTCAACAGCCGCGAATGT
Kind of assay: ITC. To be noted: 137 mM NaCl, 2.7 mM KCl, 1 mM CaCl2, 0.5 mM MgCl2; DPBS pH 7.4, 25 °C; screen with 100 μM candidate and 10 mM MG; weak thermal variation.

Assay [18] has as its system MG-14 (DNA, aptamer) CACCGCCAGGGACAGCCAGTCACGTAGCCCGGAACG
Kind of assay: ITC. The conditions noted are these: 137 mM NaCl, 2.7 mM KCl, 1 mM CaCl2, 0.5 mM MgCl2; DPBS pH 7.4, 25 °C; screen with 100 μM candidate and 10 mM MG; weak thermal variation.

The test system of assay [19] is MG-10 (DNA, aptamer) CGCGCAGCGGCAGACAGTCAGACTGCGACGCACGTT
The assay is described as follows: ITC. The conditions noted are these: 137 mM NaCl, 2.7 mM KCl, 1 mM CaCl2, 0.5 mM MgCl2; DPBS pH 7.4, 25 °C; screen with 100 μM candidate and 10 mM MG; weak thermal variation.

Assay [20] concerns MG-36-17 (DNA, aptamer) CGCAGCGCGGCAGACAGTCAGGCTCAGCACGTGGCA
Kind of assay: ITC. To be noted: 137 mM NaCl, 2.7 mM KCl, 1 mM CaCl2, 0.5 mM MgCl2; DPBS pH 7.4, 25 °C; 2 mM MG into 5 μM aptamer; one-site model.

For assay [21], the system named is MG-19 (DNA, aptamer) CGCAGACAGCCAGTCAGGGAGCGTCCAGTCCGACAC
The assay is described as follows: ITC. The conditions noted are these: 137 mM NaCl, 2.7 mM KCl, 1 mM CaCl2, 0.5 mM MgCl2; DPBS pH 7.4, 25 °C; screen with 100 μM candidate and 10 mM MG; weak thermal variation.

Assay [22] deals with MG-7 (DNA, aptamer) CGAGCCGAACGAGACGTCCAGTCCGTGCCCACGCAC
The assay is described as follows: ITC. The conditions noted are these: 137 mM NaCl, 2.7 mM KCl, 1 mM CaCl2, 0.5 mM MgCl2; DPBS pH 7.4, 25 °C; screen with 100 μM candidate and 10 mM MG; weak thermal variation.

For assay [23], the system named is MG-4 (DNA, aptamer) TGCAACACAACAGCCAGTCATGCCGGTGCACAGTCA
Kind of assay: ITC. The conditions noted are these: 137 mM NaCl, 2.7 mM KCl, 1 mM CaCl2, 0.5 mM MgCl2; DPBS pH 7.4, 25 °C; screen with 100 μM candidate and 10 mM MG; weak thermal variation.

Assay [24] deals with MG-11 (DNA, aptamer) CATGCCCAACGACATGCAGCACGTGGCCATGCACAA
The assay is described as follows: ITC. To be noted: 137 mM NaCl, 2.7 mM KCl, 1 mM CaCl2, 0.5 mM MgCl2; DPBS pH 7.4, 25 °C; screen with 100 μM candidate and 10 mM MG; weak thermal variation.

Assay [25] has as its system MG-24 (DNA, aptamer) ACGCACGTACGGCCAGTCATATGCGCACCGCGTTCA
Kind of assay: ITC. The conditions noted are these: 137 mM NaCl, 2.7 mM KCl, 1 mM CaCl2, 0.5 mM MgCl2; DPBS pH 7.4, 25 °C; screen with 100 μM candidate and 10 mM MG; weak thermal variation.

The test system of assay [26] is MG-9 (DNA, aptamer) TCTCGCAACAGCCAGCGTCATGTGACCACGGAACCA
The assay is described as follows: ITC. To be noted: 137 mM NaCl, 2.7 mM KCl, 1 mM CaCl2, 0.5 mM MgCl2; DPBS pH 7.4, 25 °C; screen with 100 μM candidate and 10 mM MG; weak thermal variation.

Assay [27] relates to MG-13 (DNA, aptamer) ACGCATCGCGAACAGCCGTGCCGTGTCCACGTACAG
Kind of assay: ITC. To be noted: 137 mM NaCl, 2.7 mM KCl, 1 mM CaCl2, 0.5 mM MgCl2; DPBS pH 7.4, 25 °C; screen with 100 μM candidate and 10 mM MG; weak thermal variation.

On to `CN(C)c1ccc(C(=C2C=CC(=[N+](C)C)C=C2)c2ccc(N(C)C)cc2)cc1`, for which the binding entry in assay [1], in [2] and in [3] was “no” each time.

With `CN(C)c1ccc(C(=C2C=CC(=[N+](C)C)C=C2)c2ccccc2)cc1`, the binding entry in assay [4], in [6], in assay [7], in assay [8], in assay [9] and in assay [10] was “no” throughout. Moreover, the binding entry in assay [11], in assay [12], in [13], in assay [15], in assay [16] and in assay [17] was “no” throughout. Besides, the binding entry in assay [18], in [19], in [21], in assay [22], in assay [23] and in assay [24] was “no” in each case. Also, the binding result in assay [25], in assay [26] and in assay [27] was “no” each time. For the same compound, the Kd amounted to 169.78 µM in [5], 71.94 µM in assay [14] and 102.46 µM in [20].

For `CN(C)c1ccc(C(c2ccccc2)c2ccc(N(C)C)cc2)cc1`, the binding entry in assay [1], in assay [2] and in assay [3] was “no” each time.

Take `Cc1cc(C)nc(NS(=O)(=O)c2ccc(N)cc2)n1`: the binding entry in assay [1] and in assay [2] was “no” throughout.

As for `NN1CC(=O)NC1=O`, the binding result in assay [2] is given as “no”.

Take `NN1CC(CN2CCOCC2)OC1=O` (stereo not shown): in assay [2], the binding entry was “no”.

In the case of `NN1CCOC1=O`, the binding result in [2] is listed as “no”.

Turning to `NNC(N)=O`, the binding entry in assay [2] is “no”.

Turning to `Nc1ccc(S(=O)(=O)Nc2ccccn2)cc1`, the binding entry in assay [2] is reported as “no”.

As for `O=C(N[C@H](CO)[C@H](O)c1ccc([N+](=O)[O-])cc1)C(Cl)Cl`, the binding result in [1], in assay [2] and in [3] was “no” in each case.
